The values below come from ChEMBL document CHEMBL1132315, “Pharmacophore models of group I and group II metabotropic glutamate receptor agonists. Analysis of conformational, steric, and topological parameters affecting potency and selectivity” (J Med Chem, 1999).

The nature of experiment [1]: The effective concentration for 50% glutamate response was measured on Group I Metabotropic glutamate receptor. It is filed as functional.
Experiment [2] can be described thus: The effective concentration for 50% glutamate response was measured on Group II Metabotropic glutamate receptor. It is filed as functional.
Experiment [3] can be described thus: (§1) Percentage of glutamate maximal response was measured on Group II Metabotropic glutamate receptor. It is filed as functional.
Experiment [4] is described as follows: Percent glutamate response was measured on group 1 Metabotropic Glutamate Receptors.
A short description of experiment [5]: as §1. It is filed as functional. The source holds these as a separate data set.

Where only a bound is given, the exact number is not on record here.

Turning to `N[C@@]1(C(=O)O)CC[C@H](C(=O)O)C1`, the concentration for a half-maximal effect (EC50) in experiment [1] is more than 300 µM; in experiment [2], 13 µM.

Compound `NC(C(=O)O)C1[C@@H](C(=O)O)[C@@H]1C(=O)O` (stereo not given in full) showed a 50% effective concentration (EC50) in experiment [3] of 0.1 µM.

Turning to `N[C@@]1(C(=O)O)CC[C@@H](C(=O)O)C1`, the concentration for a half-maximal effect (EC50) in experiment [1] was found to be 9.3 µM; in experiment [2], 18 µM.

Take `N[C@]1(C(=O)O)CC[C@H](C(=O)O)C1`: the EC50 was found to be 127 µM in experiment [1] and 110 µM in experiment [2].

In experiment [4], `NC1(C(=O)O)C2CCC1C(C(=O)O)C2` (stereo not given) had a Response of 10%. Further, the 50% effective concentration (EC50) in experiment [3] came to 30 µM.

As for `N[C@H](C(=O)O)c1cc(O)cc(O)c1`, the 50% effective concentration (EC50) in experiment [1] is 6.6 µM.

As for `N[C@@]1(C(=O)O)CN[C@@H](C(=O)O)C1`, the EC50 in experiment [1] was more than 1000 µM; in experiment [2], 3.5 µM.

With `O=C(O)[C@H]1C[C@H](C(=O)O)N1`, the EC50 was 189 µM in experiment [1] and more than 100 µM in experiment [2].

In experiment [5], `N[C@H](C(=O)O)c1cccc(O)c1` yielded a Response of less than 15%.

`N[C@@H](C(=O)O)[C@H]1CC1C(=O)O` (single isomer, unassigned): the EC50 in experiment [1] is 5 µM; in experiment [2], 0.3 µM.

On to `N[C@@H](C(=O)O)[C@@H]1CC1C(=O)O` (single isomer, unassigned), for which the response in experiment [1] was half-maximal at 20 µM (EC50).

In experiment [5], `NC1(C(=O)O)CC2CCC1C2C(=O)O` (stereo in doubt; 8) registered a Response of 50%.

On to `NC1(C(=O)O)CC2CCC1C2C(=O)O` (stereo in doubt; 9), for which the Response in experiment [4] amounted to 12%; in experiment [5], 50%.

For the compound `NC1(C(=O)O)CC2CC1C2C(=O)O` (stereo in doubt; 12), the EC50 turned out to be 1.6 µM in experiment [1] and 0.33 µM in experiment [2].

As for `NC1(C(=O)O)CC2CC1C2C(=O)O` (stereo in doubt; 21), the half-maximal effective concentration (EC50) was determined as 121 µM in experiment [1] and 54 µM in experiment [2].

As for `NC1(C(=O)O)CC2CC1C2C(=O)O` (stereo in doubt; 22), the half-maximal effective concentration (EC50) came to 232 µM in experiment [1] and 38 µM in experiment [2].

For the compound `N[C@@]1(C(=O)O)CC[C@H]2[C@H](C(=O)O)[C@H]21` [EGLUMETAD], the EC50 is more than 1000 µM in experiment [1] and 0.032 µM in experiment [2].

Take `N[C@@H](CCC(=O)O)C(=O)O` [GLUTAMIC ACID]: the EC50 in experiment [1] was 4.9 µM; in experiment [2], 0.29 µM.

Consider `N[C@H](C(=O)O)c1cc(O)no1` [IBOTENIC ACID], for which the concentration for a half-maximal effect (EC50) in experiment [1] is 6 µM; in experiment [2], 50 µM.

For `N[C@@H](Cn1oc(=O)[nH]c1=O)C(=O)O` [QUISQUALATE], the values for the EC50 in experiment [1] and in experiment [2] were 0.9 µM and 100 µM, respectively.
